Test results taken from patent US20260207720A1, “COMPOSITIONS AND METHODS FOR TREATING FUNGAL INFECTIONS” (MUCPharm Pty Ltd, priority 2022, published 2026).
Converted amounts (≈) assume the structure as drawn. Read-outs that look alike come from different tables or passages of the source.

Columns and labels:
Assay type in all cases: cell-based
[1] = tested on: Rhizopus microsporus; assay: Chequerboard broth microdilution antifungal susceptibility testing (MIC); settings: for isolates with more than 10× increase: Rhizopus microspores, antifungal with BromAc; for MIC / Observed inhibitory effect: Rhizopus microsporus; for Observed inhibitory effect: antifungal in combination with BromAc (5 mg/ml Acetylcysteine+12.5 μg/ml Bromelain) vs alone
Experimental: (§1) Unless otherwise described, fungal cultures were grown on potato dextrose agar plates at 35° C. until mature (appearance of conidia) and used to prepare suspensions in sterile water. […] These suspensions were then added in equal volume to solutions containing the candidate species described above and incubated at 35° C. for 24 hr. Plates were then analysed for fungal growth inhibition and MIC values determined. […] [MICA (combined)/MICA]+[MICB (combined)/MICB] MICA (combined) is the MIC of drug A when both drugs (i.e. drug A and drug B) are present and MICA is the MIC of drug A used in isolation. Similarly, MICB (combined) is the MIC of drug B when both drugs are present and MICB is the MIC of drug B used in isolation.

[2] = tested on: Rhizopus arrhizus; assay: as above; settings: for isolates with 10× increase: Rhizopus Arrhizus, antifungal with BromAc; for MIC / Observed inhibitory effect: Rhizopus arrhizus; for Observed inhibitory effect: antifungal in combination with BromAc (5 mg/ml Acetylcysteine+12.5 μg/ml Bromelain) vs alone
Experimental: as §1

[3] = tested on: Licthemia; assay: Susceptibility assay of antifungals with BromAc (Example 4); settings: antifungal in combination with BromAc (5 mg/ml Acetylcysteine+12.5 μg/ml Bromelain) vs alone
Experimental: (§2) The in vitro antifungal properties of Bromelain, Acetylcysteine, BromAc, Amphotericin B, Isavuconazole, Fluconazole and Posaconazole were determined using a broth microdilution method in round bottom 96 well plates in accordance with standard procedures defined by the Clinical Laboratory Standards Institute (CLSI).
(§3) Unless otherwise described, fungal cultures were grown on potato dextrose agar plates at 35° C. until mature (appearance of conidia) and used to prepare suspensions in sterile water. Suspensions were diluted in RPMI 1:60. These suspensions were then added in equal volume to solutions containing the candidate species described above and incubated at 35° C. for 24 hr. Plates were then analysed for fungal growth inhibition and MIC values determined.
(§4) BromAc (5 mg/ml Acetylcysteine+12.5 μg/ml Bromelain) was used in combination with Amphotericin B, Isavuconazole, Posaconazole and Fluconazole. The MIC values of these four antifungal agents against the fungus described below were calculated and compared with their corresponding MIC values in the presence of BromAc, using the standard susceptibility assays described above.
(§5) The fungal strains set out in Table 2, all of which were sourced from a range of clinical isolates from Australian hospitals, were used in these experiments to gain a further understanding of the efficacy of BromAc in combination with Amphotericin B, Isavuconazole, Posaconazole and Fluconazole.

[4] = tested on: Candida glabrata; assay: as above; settings: for Observed inhibitory effect: antifungal in combination with BromAc (5 mg/ml Acetylcysteine+12.5 μg/ml Bromelain) vs alone; for isolates with more than a 10× increase in sensitivity: antifungal with BromAc
Experimental: as §2, §3, §4, §5

[5] = tested on: Fusarium; assay: as above; settings: antifungal in combination with BromAc (5 mg/ml Acetylcysteine+12.5 μg/ml Bromelain) vs alone
Experimental: as §2, §3, §4, §5

[6] = tested on: Cryptococcus; assay: as above; settings: for Observed inhibitory effect: antifungal in combination with BromAc (5 mg/ml Acetylcysteine+12.5 μg/ml Bromelain) vs alone; for isolates with more than 10× increase: antifungal with BromAc
Experimental: as §2, §3, §4, §5

[7] = tested on: Scedosporium; assay: as above; settings: antifungal in combination with BromAc (5 mg/ml Acetylcysteine+12.5 μg/ml Bromelain) vs alone
Experimental: as §2, §3, §4, §5

[8] = tested on: Candida parapslosis; assay: as above; settings: for increase in sensitivity: Candida parapsilosis, antifungal with BromAc; for Observed inhibitory effect: Candida parapslosis, antifungal in combination with BromAc (5 mg/ml Acetylcysteine+12.5 μg/ml Bromelain) vs alone
Experimental: as §2, §3, §4, §5

[9] = tested on: Candida kruseii; assay: as above; settings: antifungal in combination with BromAc (5 mg/ml Acetylcysteine+12.5 μg/ml Bromelain) vs alone
Experimental: as §2, §3, §4, §5

[10] = tested on: Candida auris; assay: as above; settings: for isolates with more than 10× increase: Candida auris, antifungal with BromAc; for Observed inhibitory effect: Candida aurus, antifungal in combination with BromAc (5 mg/ml Acetylcysteine+12.5 μg/ml Bromelain) vs alone
Experimental: as §2, §3, §4, §5

[11] = tested on: Cunninghamella; assay: as above; settings: for Observed inhibitory effect: antifungal in combination with BromAc (5 mg/ml Acetylcysteine+12.5 μg/ml Bromelain) vs alone
Experimental: as §2, §3, §4, §5

[12] = tested on: Mucor circinelloides; assay: as above; settings: for Observed inhibitory effect: antifungal in combination with BromAc (5 mg/ml Acetylcysteine+12.5 μg/ml Bromelain) vs alone; for isolates with increased sensitivity: antifungal with BromAc
Experimental: as §2, §3, §4, §5

[13] = tested on: Aspergillus; assay: as above; settings: antifungal in combination with BromAc (5 mg/ml Acetylcysteine+12.5 μg/ml Bromelain) vs alone
Experimental: as §2, §3, §4, §5

[14] = tested on: Lomentospora; assay: as above; settings: antifungal in combination with BromAc (5 mg/ml Acetylcysteine+12.5 μg/ml Bromelain) vs alone
Experimental: as §2, §3, §4, §5

[15] = tested on: Candida tropicalis; assay: as above; settings: for Observed inhibitory effect: antifungal in combination with BromAc (5 mg/ml Acetylcysteine+12.5 μg/ml Bromelain) vs alone; for isolates with more than a 10× increase in sensitivity: antifungal with BromAc
Experimental: as §2, §3, §4, §5

[16] = Rhizopus microsporus (80-21-006-5340), drug alone, read-out: MIC
[17] = eight R. microsporus strains, read-out: MIC, average over the strains
[18] = isolate R. microsporus 1, BromAc at constant concentration where combined, read-out: MIC
[19] = isolate R. microsporus 2, BromAc at constant concentration where combined, read-out: MIC
[20] = isolate R. microsporus 3, BromAc at constant concentration where combined, read-out: MIC
[21] = isolate R. microsporus 4, BromAc at constant concentration where combined, read-out: MIC
[22] = isolate R. microsporus 5, BromAc at constant concentration where combined, read-out: MIC
[23] = isolate R. microsporus 6, BromAc at constant concentration where combined, read-out: MIC
[24] = isolate R. microsporus 7, BromAc at constant concentration where combined, read-out: MIC
[25] = isolate R. microsporus 8, BromAc at constant concentration where combined, read-out: MIC
[26] = Rhizopus arrhizus (80-21-015-4777), drug alone, read-out: MIC
[27] = eight R. arrhizus strains, read-out: MIC, average over the strains
[28] = isolate R. archizus 1, BromAc at constant concentration where combined, read-out: MIC
[29] = isolate R. archizus 2, BromAc at constant concentration where combined, read-out: MIC
[30] = isolate R. archizus 3, BromAc at constant concentration where combined, read-out: MIC
[31] = isolate R. archizus 8, BromAc at constant concentration where combined, read-out: MIC
[32] = isolate R. arrhizus 4, BromAc at constant concentration where combined, read-out: MIC
[33] = isolate R. arrhizus 5, BromAc at constant concentration where combined, read-out: MIC
[34] = isolate R. arrhizus 6, BromAc at constant concentration where combined, read-out: MIC
[35] = isolate R. arrhizus 7, BromAc at constant concentration where combined, read-out: MIC

C[C@@H]1[C@H](O)[C@@H](C)/C=C/C=C/C=C/C=C/C=C/C=C/C=C/[C@H](O[C@@H]2O[C@H](C)[C@@H](O)[C@H](N)[C@@H]2O)C[C@@H]2O[C@](O)(C[C@@H](O)C[C@@H](O)[C@H](O)CC[C@@H](O)C[C@@H](O)CC(=O)O[C@H]1C)C[C@H](O)[C@H]2C(=O)O [Amphotericin B]
isolates with more than 10× increase [1]: 9 of 10
MIC [1, 16]: 0.5 µg/mL (≈ 0.541 µM)
MIC [1, 17]: 0.7 µg/mL (≈ 0.758 µM)
MIC [1, 18]: 1 µg/mL
MIC [1, 19]: 1 µg/mL
MIC [1, 20]: 0.25 µg/mL
MIC [1, 21]: 0.5 µg/mL
MIC [1, 22]: 0.5 µg/mL
MIC [1, 23]: 0.5 µg/mL
MIC [1, 24]: 0.5 µg/mL
MIC [1, 25]: 0.5 µg/mL
Observed inhibitory effect [1]: Strong (Strong = 5-10x (or greater) inhibitory effect)
effect on fungal culture (in words) ([1]; alone at 0.25 mg/L): not effective
MICs, range over the strains ([1]; eight R. microsporus strains): 0.5 to 1 µg/mL
isolates with 10× increase [2]: 8 of 8
MIC [2, 26]: 0.5 µg/mL (≈ 0.541 µM)
MIC [2, 27]: 0.6 µg/mL (≈ 0.649 µM)
MIC [2, 28]: 1 µg/mL
MIC [2, 29]: 0.5 µg/mL
MIC [2, 30]: 1 µg/mL
MIC [2, 31]: 0.5 µg/mL
MIC [2, 32]: 0.5 µg/mL
MIC [2, 33]: 0.5 µg/mL
MIC [2, 34]: 1 µg/mL
MIC [2, 35]: 0.5 µg/mL
Observed inhibitory effect [2]: Strong (Strong = 5-10x (or greater) inhibitory effect)
effect on fungal culture (in words) ([2]; alone at 0.25 mg/L): not effective
Amphotericin concentration at which complete inhibition was seen ([2]; combined with 25 μg/mL of bromelain): 0.3 mg/L
MICs, range over the strains ([2]; eight R. arrhizus strains): 0.25 to 1 µg/mL
Observed inhibitory effect [3]: Moderate (Moderate = 1-5x inhibitory effect)
Observed inhibitory effect [4]: Strong (Strong = 5-10x (or greater) inhibitory effect)
isolates with more than a 10× increase in sensitivity [4]: 5 of 5
Observed inhibitory effect [5]: No effect
Observed inhibitory effect [6]: Strong (Strong = 5-10x (or greater) inhibitory effect)
isolates with more than 10× increase [6]: 5 of 5
Observed inhibitory effect [7]: No effect
increase in sensitivity [8]: ~10 ×
Observed inhibitory effect [8]: Strong (Strong = 5-10x (or greater) inhibitory effect)
Observed inhibitory effect [9]: Strong (Strong = 5-10x (or greater) inhibitory effect)
isolates with more than 10× increase [10]: 2 of 5
Observed inhibitory effect [10]: Moderate (Moderate = 1-5x inhibitory effect)
Observed inhibitory effect [11]: Possible
Observed inhibitory effect [12]: Strong (Strong = 5-10x (or greater) inhibitory effect)
isolates with increased sensitivity [12]: 2 of 2
Observed inhibitory effect [13]: No effect
Observed inhibitory effect [14]: No effect
Observed inhibitory effect [15]: Strong (Strong = 5-10x (or greater) inhibitory effect)
isolates with more than a 10× increase in sensitivity [15]: 4 of 5

CC[C@@H]([C@H](C)O)n1ncn(-c2ccc(N3CCN(c4ccc(OC[C@@H]5CO[C@@](Cn6cncn6)(c6ccc(F)cc6F)C5)cc4)CC3)cc2)c1=O [Posaconazole]
isolates with more than 10× increase [1]: 9 of 10
MIC [1, 16]: 1 µg/mL (≈ 1.43 µM)
MIC [1, 17]: 0.5 µg/mL (≈ 0.713 µM)
MIC [1, 18]: 1 µg/mL
MIC [1, 19]: 1 µg/mL
MIC [1, 20]: 0.25 µg/mL
MIC [1, 21]: 0.25 µg/mL
MIC [1, 22]: 0.25 µg/mL
MIC [1, 23]: 0.25 µg/mL
MIC [1, 24]: 0.25 µg/mL
MIC [1, 25]: 0.25 µg/mL
Observed inhibitory effect [1]: Strong (Strong = 5-10x (or greater) inhibitory effect)
MICs, range over the strains ([1]; eight R. microsporus strains): 0.25 to 1 µg/mL
isolates with 10× increase [2]: 7 of 8
MIC [2, 26]: 0.5 µg/mL (≈ 0.713 µM)
MIC [2, 27]: 0.8 µg/mL (≈ 1.14 µM)
MIC [2, 28]: 1 µg/mL
MIC [2, 29]: 1 µg/mL
MIC [2, 30]: 0.25 µg/mL
MIC [2, 31]: 0.25 µg/mL
MIC [2, 32]: 0.25 µg/mL
MIC [2, 33]: 0.25 µg/mL
MIC [2, 34]: 0.5 µg/mL
MIC [2, 35]: 0.25 µg/mL
Observed inhibitory effect [2]: Strong (Strong = 5-10x (or greater) inhibitory effect)
MICs, range over the strains ([2]; eight R. arrhizus strains): 0.25 to 1 µg/mL
Observed inhibitory effect [3]: Moderate (Moderate = 1-5x inhibitory effect)
Observed inhibitory effect [4]: Strong (Strong = 5-10x (or greater) inhibitory effect)
isolates with more than a 10× increase in sensitivity [4]: 5 of 5
Observed inhibitory effect [5]: No effect
Observed inhibitory effect [6]: Strong (Strong = 5-10x (or greater) inhibitory effect)
isolates with more than 10× increase [6]: 5 of 5
Observed inhibitory effect [7]: Possible
increase in sensitivity [8]: more than 10 ×
Observed inhibitory effect [8]: Strong (Strong = 5-10x (or greater) inhibitory effect)
Observed inhibitory effect [9]: Strong (Strong = 5-10x (or greater) inhibitory effect)
isolates with more than 10× increase [10]: 4 of 5
Observed inhibitory effect [10]: Strong (Strong = 5-10x (or greater) inhibitory effect)
Observed inhibitory effect [11]: Moderate (Moderate = 1-5x inhibitory effect)
interaction with BromAc (in words) ([11]; antifungal with BromAc): some synergy
Observed inhibitory effect [12]: Strong (Strong = 5-10x (or greater) inhibitory effect)
isolates with increased sensitivity [12]: 1 of 2
Observed inhibitory effect [13]: Moderate (Moderate = 1-5x inhibitory effect)
Observed inhibitory effect [14]: No effect
Observed inhibitory effect [15]: Strong (Strong = 5-10x (or greater) inhibitory effect)
isolates with more than a 10× increase in sensitivity [15]: 4 of 5
